ChEMBL document CHEMBL2434873, “Synthesis of VS-105: A novel and potent vitamin D receptor agonist with reduced hypercalcemic effects” (Bioorg Med Chem Lett, 2013)

Assays:
Vitamin D3 receptor [1] = biological target: T1, Vitamin D3 receptor (Homo sapiens, UniProt P11473); test: Binding affinity to VDR (unknown origin)
T1 sequence (P11473 whole entry): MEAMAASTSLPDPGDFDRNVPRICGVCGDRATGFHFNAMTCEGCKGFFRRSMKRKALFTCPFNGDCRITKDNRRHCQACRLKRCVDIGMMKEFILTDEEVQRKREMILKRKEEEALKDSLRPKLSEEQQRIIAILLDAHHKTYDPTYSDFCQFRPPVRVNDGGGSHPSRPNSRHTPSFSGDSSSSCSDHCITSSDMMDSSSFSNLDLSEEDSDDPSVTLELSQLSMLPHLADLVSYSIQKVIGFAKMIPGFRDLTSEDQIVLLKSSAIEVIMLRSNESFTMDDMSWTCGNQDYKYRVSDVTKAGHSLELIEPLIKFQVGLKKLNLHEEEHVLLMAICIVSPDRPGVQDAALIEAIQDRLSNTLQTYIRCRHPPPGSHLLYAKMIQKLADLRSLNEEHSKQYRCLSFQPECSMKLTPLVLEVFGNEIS

HL-60 = test: Induction of human HL60 cell differentiation after 4 days by NBT reduction assay; format: functional, cell-based; conditions: HL-60, 96 h
Rattus norvegicus [2] = test: Agonist activity at VDR in 5/6 nephrectomized uremic Sprague-Dawley rat assessed as dose require to suppress serum PTH level administered 3 times per week for 12 days measured 24 hrs post last dose by ELISA; format: functional
Rattus norvegicus [3] = test: Toxicity in 5/6 nephrectomized uremic Sprague-Dawley rat assessed as dose require to cause hypercalcemia administered 3 times per week for 12 days measured 24 hrs post last dose; format: organism-based; conditions: in vivo
[4] = Therapeutic index, ratio for induction of hypercalcemia over suppression of serum PTH level in 5/6 nephrectomized uremic Sprague-Dawley rat; format: organism-based; conditions: read-out: TI
Vitamin D3 receptor [5] = biological target: T1, Vitamin D3 receptor; test: Agonist activity at VDR ligand binding domain (unknown origin) by reporter gene assay

IC50 (Vitamin D3 receptor [1]) [nM] | EC50 (HL-60) [nM] | EC50 (Vitamin D3 receptor [5]) [nM] | Compound | Activity (Rattus norvegicus [2]) [µg/kg] | Activity (Rattus norvegicus [3]) [µg/kg] | selectivity ratio [4]
38 | 11.8 | < 0.1 | C=C1[C@H](O)CC(=C/C=C2\CCC[C@]3(C)[C@@H]([C@@H](C)OC[C@H](C)C(C)(C)O)CC[C@@H]23)C[C@H]1O | 0.004 | > 0.6 | > 50
– | 12.5 | – | C[C@H](/C=C/[C@H](C)C(C)(C)O)[C@H]1CC[C@H]2/C(=C/C=C3C[C@@H](O)C[C@H](O)C3)CCC[C@]12C [PARICALCITOL] | 0.02 | > 0.08 | 4
